Paper PMC6199744, “Development of Chemical Proteomics for the Folateome and Analysis of the Kinetoplastid Folateome” (ACS Infectious Diseases, 2018)

System: L. major lysate proteins
Assay: Multitargeted bead mixture chemoproteomics, single concentration competition, proteome-wide
Assay type: binding
Details: for fold change: vehicle control = 1

Question: Which results are given for `NCCOCCOCC(=O)Nc1nc2ncc(CNc3ccc(C(=O)NC(CCC(=O)O)C(=O)O)cc3)nc2c(=O)[nH]1` (stereo not shown) [compound 6]?
Answer: fold change vs vehicle control (protein LMJF.15.0690 HY[…], CONSERVED): 1.26; fold change (protein LMJF.15.1010 GLUTAMATE DEHYDROGENASE): 1.11; fold change (protein LMJF.15.1190 HY[…], CONSERVED (cyclic nucleotide-binding domain containing protein, putative)): 1.07; fold change vs vehicle control (protein LMJF.16.0520 HYPOTHETICAL PROTEIN, CONSERVED): 0.99; fold change vs vehicle control (protein LMJF.16.0540 ASPARTATE […], PUTATIVE): 1.06; fold change relative to vehicle control (protein LMJF.16.0760, TRANSALDOLASE, PUTATIVE): 1.36; fold change vs vehicle control (protein LMJF.16.0940 DYNEIN LIGHT CHAIN, PUTATIVE): 0.92; fold change relative to vehicle control (protein LMJF.16.1180, COATOMER DELTA SUBUNIT-LIKE PROTEIN): 1.24; fold change relative to vehicle control (protein LMJF.16.1320, […], PUTATIVE): 1.33; fold change relative to vehicle control (protein LMJF.16.1420, HY[…], CONSERVED): 1.05; fold change relative to vehicle control (protein LMJF.17.0081, […] 1-ALPHA): 1.09; fold change relative to vehicle control (protein LMJF.18.0270, GLYCOGEN SYNTHASE KINASE, PUTATIVE): 1.13; fold change (protein LMJF.18.0580 PEROXISOMAL ENOYL-COA HYDRATASE, PUTATIVE): 0.98; fold change relative to vehicle control (protein LMJF.18.0680, CITRATE SYNTHASE, PUTATIVE): 1.1; fold change vs vehicle control (protein LMJF.18.1010 DYNEIN LIGHT CHAIN 2B, CYTOPLASMIC, PUTATIVE): 0.82; fold change vs vehicle control (protein LMJF.18.1210 PROLYL-TRNA SYNTHETASE, PUTATIVE,BIFUNCTIONAL AMINOACYL-TRNA SYNTHETASE, PUTATIVE): 1; fold change vs vehicle control (protein LMJF.18.1370 HEAT SHOCK PROTEIN, PUTATIVE): 1.1; fold change (protein LMJF.19.0200 ADP,ATP CARRIER PROTEIN 1, MITOCHONDRIAL PRECURSOR, PUTATIVE): 1.1; fold change vs vehicle control (protein LMJF.19.1120 PROTEASOME REGULATORY NON-ATP-ASE SUBUNIT, PUTATIVE): 0.96; fold change vs vehicle control (protein LMJF.19.1160 HY[…], CONSERVED): 1.08; fold change vs vehicle control (protein LMJF.19.1560 INOSINE-5'-MONOPHOSPHATE DEHYDROGENASE): 0.98; fold change relative to vehicle control (protein LMJF.19.1620, POTASSIUM VOLTAGE-GATED CHANNEL, PUTATIVE): 1.05; fold change vs vehicle control (protein LMJF.20.1280 SMALL MYRISTOYLATED PROTEIN 4, PUTATIVE): 0.89; fold change (protein LMJF.21.0810 METHIONYL-TRNA SYNTHETASE, PUTATIVE): 1.03; fold change (protein LMJF.21.1450 ARGININE N-METHYLTRANSFERASE, TYPE II, PUTATIVE): 0.96; fold change vs vehicle control (protein LMJF.21.1830 […] 5 SUBUNIT, PUTATIVE,20S […] ALPHA 5, (PUTATIVE)): 1.01; fold change (protein LMJF.22.0230 AMINO ACID PERMEASE, PUTATIVE): 1.05; fold change vs vehicle control (protein LMJF.22.0570 […] SUBUNIT 1, PUTATIVE): 1.03; fold change vs vehicle control (protein LMJF.22.0730 HYPOTHETICAL PROTEIN, CONSERVED): 0.94; fold change (protein LMJF.22.0770 NADH-CYTOCHROME B5 REDUCTASE, PUTATIVE): 0.79; fold change relative to vehicle control (protein LMJF.23.0020, HY[…], CONSERVED): 1.46; fold change relative to vehicle control (protein LMJF.23.0040, PEROXIDOXIN): 0.97; fold change relative to vehicle control (protein LMJF.23.0080, HY[…], CONSERVED): 1.04; fold change (protein LMJF.23.0210 ATP-BINDING CASSETTE PROTEIN SUBFAMILY C, MEMBER 1, PUTATIVE): 0.92; fold change (protein LMJF.23.0370 CYTOCHROME C OXIDASE SUBUNIT 10, PUTATIVE): 0.83; fold change relative to vehicle control (protein LMJF.23.0540, ACETYL-COA SYNTHETASE, PUTATIVE): 1.23; fold change vs vehicle control (protein LMJF.23.0560 KINESIN, PUTATIVE): 1.1; fold change vs vehicle control (protein LMJF.23.1410 HY[…], CONSERVED): 1.01; fold change relative to vehicle control (protein LMJF.24.0070, HYPOTHETICAL PROTEIN, CONSERVED): 0.93; fold change (protein LMJF.24.0140 ANKYRIN/TPR REPEAT PROTEIN): 1.06; fold change (protein LMJF.24.0400 HY[…], CONSERVED (TPR repeat, putative)): 1.02; fold change relative to vehicle control (protein LMJF.24.1510, IGE-DEPENDENT HISTAMINE-RELEASING FACTOR, PUTATIVE): 1.54; fold change relative to vehicle control (protein LMJF.24.1630, SUCCINATE DEHYDROGENASE FLAVOPROTEIN, PUTATIVE): 1.08; fold change relative to vehicle control (protein LMJF.24.2060, TRANSKETOLASE): 1.04; fold change relative to vehicle control (protein LMJF.25.0010, BETA […] TRANSFERASE): 1.13; fold change relative to vehicle control (protein LMJF.25.0910, CYCLOPHILIN A): 2.21; fold change vs vehicle control (protein LMJF.25.1130 CYTOCHROME C OXIDASE VII, PUTATIVE): 0.99; fold change relative to vehicle control (protein LMJF.25.1180, ATPASE BETA SUBUNIT, PUTATIVE): 1.13; fold change vs vehicle control (protein LMJF.25.1610 HY[…], CONSERVED): 1.01; fold change vs vehicle control (protein LMJF.25.1620 HYPOTHETICAL PROTEIN, CONSERVED): 1.1; fold change (protein LMJF.25.2340 SERINE/THREONINE-PROTEIN KINASE, PUTATIVE,PROTEIN KINASE, PUTATIVE): 0.74; fold change relative to vehicle control (protein LMJF.26.0630, HYPOTHETICAL PROTEIN, CONSERVED): 0.77; fold change vs vehicle control (protein LMJF.26.1240 HEAT SHOCK PROTEIN 70-RELATED PROTEIN): 1.06; fold change (protein LMJF.26.1710 CYTOCHROME C OXIDASE SUBUNIT V, PUTATIVE): 0.98; fold change vs vehicle control (protein LMJF.26.2480 CDP-DIACYLGLYCEROL--INOSITOL 3-[…], PUTATIVE): 1.06; fold change vs vehicle control (protein LMJF.26.2560 HYPOTHETICAL PROTEIN, CONSERVED): 0.93; fold change vs vehicle control (protein LMJF.27.0190 PROTEASOME ALPHA 7 SUBUNIT, PUTATIVE): 0.98; fold change (protein LMJF.27.0650 HY[…], CONSERVED): 1.15; fold change (protein LMJF.27.0700 HY[…], CONSERVED): 1.08; fold change vs vehicle control (protein LMJF.27.0760 GTP-binding protein homologue): 1.08; fold change vs vehicle control (protein LMJF.27.1060 CYSTEINE DESULFURASE, PUTATIVE): 1.09; fold change vs vehicle control (protein LMJF.27.1110 MITOCHONDRIAL RNA BINDING PROTEIN 1,GBP21, MRP1): 1; fold change (protein LMJF.27.1250 HYPOTHETICAL PROTEIN, CONSERVED (Serine-threonine kinase receptor-associated protein, putative)): 0.85; fold change relative to vehicle control (protein LMJF.27.1390, 60S ACIDIC RIBOSOMAL SUBUNIT PROTEIN, PUTATIVE): 1.07; fold change (protein LMJF.27.1460 PROTEASOME REGULATORY NON-ATP-ASE SUBUNIT 3, PUTATIVE): 1.1; fold change vs vehicle control (protein LMJF.28.0110 […] 3 SUBUNIT, PUTATIVE): 1.01; fold change vs vehicle control (protein LMJF.28.0490 PROPIONYL-COA CARBOXYLASE BETA CHAIN, PUTATIVE): 1.2
